Data taken from patent US20150315218A1, “SALTS OF PRODRUGS OF PIPERAZINE AND SUBSTITUTED PIPERIDINE ANTIVIRAL AGENTS” (Bristol-Myers Squibb Company, priority 2004, published 2015).
Converted amounts (≈) assume the structure as drawn. “And” between values parts separate entries of the source, which are not always exact repeats. Identical values can stand only once. Counter-ions that a name gives are not always drawn. Like-named read-outs stand apart in the source and are kept apart here. Blank lines part the entries; values can stand above or below the compound they belong to.

Columns and labels:
[1] = IV and oral rat PK (MAP) studies A, B, C of phosphate prodrugs and parent studies A1, B1, C1; assay type: in vivo, Sprague-Dawley rats; conditions: rats; for Vd / half-life / concentration at 24 h / AUC(0-t) / Tmax / Cmax: male, Sprague-Dawley, rat; for Vd: read-out: Vss i.v.; for concentration at 24 h: oral, read-out: Cp @ 24 hr p.o.; for AUC(0-t): AUC 0-24 h (μM * hr)
Experimental: The rats for oral dosing studies were fasted overnight. […] The dosing solutions of all three prodrugs for both IV and oral administration were prepared in 100% normal saline at 1 mg/mL (dosing solution concentrations were parent compound equivalent). Plasma samples were collected in EDTA vacutainers over 24 hrs, and analyzed by LC/MS/MS for both the prodrugs and parent molecules. Pharmacokinetic analysis was performed on Kinetica™.
Plasma and tissue samples were collected and stored at −20° C. until analysis. […] Rats were fasted overnight in PO studies. […] In the PO studies, rats (n=3) received PO doses of 5 and 100 mg/kg.
Male Sprague-Dawley rats (300-350 g, Hilltop Lab Animals, Inc., Scottdale, Pa.) with cannulas implanted in the jugular vein and/or bile duct were used. The rats were fasted overnight in the PO pharmacokinetic studies. Blood samples of 0.3 ml were collected from the jugular vein in EDTA-containing microtainer tubes (Becton Dickinson, Franklin Lakes, N.J.), and centrifuged to separate plasma.

[2] = Stability of prodrug in fresh EDTA blood (rat); conditions: for % IVa Formed (of starting concentration of Iab) / Iab / IVa Formed: Rat EDTA blood
[3] = Stability (hydrolysis) of prodrug in fresh serum (monkey); conditions: Monkey Serum
[4] = test system: HIV-1 T-tropic strain LAI; test: Antiviral assay: HIV-1 LAI infection of MT-2 cells, reverse transcriptase readout (EC50, Table 48); assay type: cell-based; conditions: Human immunodeficiency virus 1, MT2; read-out: EC50-LAI
Text: The materials and experimental procedures used to assess the anti-HIV activity of the parent compounds which are generated from the prodrugs in vivo are described below:
• The human T cell line MT-2 and PM1 (AIDS Research and Reference Reagent Program, National Institutes of Health) were maintained and propagated in Medium RPMI-1640 (Invitrogen, Carlsbad, Calif.), containing 10% fetal Bovine serum. (FBS, Sigma, St. Louis, Mo.).
• Laboratory strains of HIV-1—the T-tropic strain LAI was obtained through the AIDS Research and Reference Reagent Program, National Institutes of Health. It was amplified in MT-2 cells and titered using a virus yield assay (2). Detection was achieved through use of a reverse transcriptase assay (3), adapted for use with a Scintillation Proximity detection protocol (1) (Amersham Biosciences, Piscataway, N.J.).
• 1. Compounds stocks were prepared by dissolving in DMSO to 30 mM. For dilution plates, compounds were serially diluted 3-fold into DMSO, using 96-well polypropylene plates, so that the concentrations were 100-fold greater than the final assay concentration. For antiviral and cytotoxicity assays, 2 μl was added per well (1% final DMSO concentration). • 2. Compounds were added from dilution plates to 96 well tissue culture plates, containing 100 μl Medium RPMI-1640, containing 10% fetal bovine serum at a concentration of <20 μM. • 3. For antiviral assays, cells were infected at a multiplicity of infection of 0.005. After 1 h at 37° C., infected cells were diluted to 200,000 cells per ml in Medium RPMI-1640, containing 10% fetal bovine serum. 100 μl of this solution was added per well, giving a final volume of 200 μl. • 4. Plates were incubated at 37° C. in a humidified CO2 incubator and harvested after 5 days. • 5. Viral infections were monitored by measuring reverse transcriptase activity in the supernatants of infected wells as described above. The percent inhibition for each compound was calculated by quantifying the readout level in cells infected in the presence of each compound as a percentage of that observed for cells infected in the absence of compound and subtracting such a determined value from 100. • 6. An EC50 provides a method for comparing the antiviral potency of the compounds of this invention. The effective concentration for fifty percent inhibition (EC50) was calculated with the Microsoft Excel Xlfit curve fitting software. For each compound, curves were generated from percent inhibition calculated at 8 different concentrations by using a four paramenter logistic model (model 205).

physchem = conditions: thermodynamic from solid
[5] = Stability (hydrolysis) of prodrug in fresh serum (human); conditions: Human Serum
[6] = Stability (hydrolysis) of prodrug in fresh serum (dog); conditions: Dog Serum
monkey hepatocytes = test: Hydrolysis of prodrug in hepatocytes (monkey); assay type: in vitro ADME
Experimental: (§1) The in vitro intrinsic clearance of Ibb in hepatocytes (Clint) was calculated as follows: Clint(μL/min/million cells)=Rate/CE where Rate is the rate of metabolism in hepatocytes (pmol/min/million cells), and CE is the concentration of Ibb in the incubation. The in vitro intrinsic clearance of Icb in hepatocytes (Clint) was calculated as follows: Clint(μL/min/million cells)=Rate/CE where Rate is the rate of metabolism in hepatocytes (pmol/min/million cells), and CE is the concentration of Icb in the incubation.

dog hepatocytes = test: Hydrolysis of prodrug in hepatocytes (dog); assay type: in vitro ADME
Experimental: as §1

[7] = plasma, 1 mg/kg, historic, parent IV 1 mpk
[8] = plasma, iv, 1 mg/kg, after IV prodrug dosing equivalent to 1 mpk of parent, analyte = label, read-out: T1/2 i.v. (converted)
[9] = plasma, iv, 1 mg/kg, historic, parent IV 1 mpk, read-out: T1/2 i.v. (converted)
[10] = plasma, 5 mg/kg, after PO prodrug dosing equivalent to 5 mpk of parent, analyte = label
[11] = plasma, 5 mg/kg, historic, after PO dosing of parent 5 mpk
[12] = plasma, po, 5 mg/kg, after PO prodrug dosing equivalent to 5 mpk of parent, analyte = label
[13] = plasma, po, 5 mg/kg, historic, after PO dosing of parent 5 mpk
[14] = plasma, po, 5 mg/kg, after PO prodrug dosing equivalent to 5 mpk of parent
[15] = plasma, po, 5 mg/kg, after PO prodrug dosing equivalent to 5 mpk of parent, read-out: T1/2 p.o. (converted)
[16] = plasma, po, 5 mg/kg, historic, after PO dosing of parent 5 mpk, read-out: T1/2 p.o. (converted)
[17] = parent AUC after prodrug dosing vs after parent dosing

SMILES: COc1ncc(OC)c2c(C(=O)C(=O)N3CCN(C(=O)c4ccccc4)CC3)c[nH]c12 [IVa, N-(benzoyl)-N′-[(4,7-dimethoxy-6-azaindol-3-yl)-oxoacetyl]piperazine]
Vd [1, 7]: 1.4 ± 0.4 L/kg | half-life [1, 8]: 2.8 ± 1.5 h | half-life [1, 9]: 4 ± 2.6 h | concentration at 24 h [1, 10]: 35.2 nM | concentration at 24 h [1, 11]: 9.2 nM | AUC(0-t) [1, 12]: 5.9 ± 1 µM·h | AUC(0-t) [1, 13]: 14.9 ± 6.2 µM·h | Tmax [1, 14]: 1.7 h | Cmax [1, 12]: 1400 ± 600 nM | half-life [1, 15]: 3.3 ± 2.2 h | Cmax [1, 13]: 4500 ± 1500 nM | Tmax [1, 13]: 2 h | half-life [1, 16]: 1.9 ± 0.8 h | CL i.v. ([1]; historic, parent IV 1 mpk): 13 ± 4.6 mL/min/kg | AUC0 tot ratio after IV administration* [1, 17]: 0.534 | AUCtot ratio after PO administration** [1, 17]: 0.39 | % IVa Formed (of starting concentration of Iab) ([2]; 0 min): 0.24% | Iab / IVa Formed ([2]; 37°C, 0 min): 0.019 µM | % IVa Formed (of starting concentration of Iab) ([2]; 20 min): 0.70% | Iab / IVa Formed ([2]; 20 min): 0.056 µM | % IVa Formed (of starting concentration of Iab) ([2]; 40 min): 0.90% | Iab / IVa Formed ([2]; 40 min): 0.072 µM | % IVa Formed (of starting concentration of Iab) ([2]; 60 min): 1.2% | Iab / IVa Formed ([2]; 60 min): 0.093 µM | Iab / IVa Formed ([3]; 37°C, 0 min): 0.20 µM | Iab / IVa Formed ([3]; 15 min): 0.48 µM | Iab / IVa Formed ([3]; 30 min): 0.75 µM | Iab / IVa Formed ([3]; 45 min): 1.2 µM | Iab / IVa Formed ([3]; 60 min): 1.5 µM | Iab / IVa Formed ([3]; 90 min): 2.0 µM | EC50 [4]: < 1000 nM | solubility (physchem; aqueous, aqueous buffer): 40 to 900 µg/mL (≈ 94.7 to 2130 µM) | Iab / IVa Formed ([5]; 37°C, 0 min): 0.10 µM | Iab / IVa Formed ([5]; 15 min): 0.10 µM | Iab / IVa Formed ([5]; 30 min): 0.15 µM | Iab / IVa Formed ([5]; 45 min): 0.20 µM | Iab / IVa Formed ([5]; 60 min): 0.24 µM | Iab / IVa Formed ([5]; 90 min): 0.32 µM | Iab / IVa Formed ([6]; 37°C, 0 min): 0.066 µM | Iab / IVa Formed ([6]; 15 min): 0.85 µM | Iab / IVa Formed ([6]; 30 min): 1.6 µM | Iab / IVa Formed ([6]; 45 min): 2.5 µM | Iab / IVa Formed ([6]; 60 min): 3.2 µM | Iab / IVa Formed ([6]; 90 min): 4.4 µM

Cmax ([1]; in vivo, 5 mg/kg, historic, after PO dosing of parent 5 mpk): 9500 ± 2800 nM | Vd [1, 7]: 0.49 ± 0.26 L/kg | half-life [1, 8]: 1.5 ± 0.2 h | half-life [1, 9]: 5.9 ± 4.9 h | concentration at 24 h [1, 10]: 7.5 nM | concentration at 24 h [1, 11]: 161 nM | AUC(0-t) [1, 12]: 13.7 ± 2.6 µM·h | AUC(0-t) [1, 13]: 86 ± 33 µM·h | Tmax [1, 14]: 1.1 h | Cmax [1, 12]: 3900 ± 800 nM | half-life [1, 15]: 2.4 ± 0.5 h | Tmax [1, 13]: 4.6 h | half-life [1, 16]: 3.7 ± 0.9 h | EC50 [4]: < 1000 nM | solubility (physchem; aqueous, aqueous buffer): 7 to 190 µg/mL (≈ 15.6 to 425 µM)
SMILES: O=C(C(=O)N1CCN(C(=O)c2ccccc2)CC1)c1c[nH]c2c(-n3ccnn3)ncc(F)c12 [IVb]

Vd [1, 7]: 0.4 ± 0.09 L/kg | concentration at 24 h [1, 10]: 84.3 nM | concentration at 24 h [1, 11]: 61 nM | AUC(0-t) [1, 12]: 56 ± 7.5 µM·h | AUC(0-t) [1, 13]: 110 ± 25 µM·h | Tmax [1, 14]: 0.8 ± 0.1 h | Cmax [1, 12]: 10200 ± 2100 nM | Cmax [1, 13]: 13400 ± 3600 nM | Tmax [1, 13]: 4 h | EC50 [4]: < 1000 nM
SMILES: COc1cnc(-n2cnc(C)n2)c2[nH]cc(C(=O)C(=O)N3CCN(C(=O)c4ccccc4)CC3)c12 [IVc]

Iab / IVa Formed ([2]; 37°C, 0 min): 8.0 µM | Iab / IVa Formed ([2]; 20 min): 8.8 µM | Iab / IVa Formed ([2]; 40 min): 10 µM | Iab / IVa Formed ([2]; 60 min): 10 µM | conversion of prodrug to parent in blood containing EDTA ([2]; rat blood, 37°C, 60 min (Iab) or 90 min (Ibb, Icb)): < 2% and 1.2% | hydrolysis in the presence of hepatocytes (monkey hepatocytes; monkey hepatocytes, qualitative): hydrolyzed | hydrolysis in the presence of hepatocytes (dog hepatocytes; dog hepatocytes, qualitative): hydrolyzed | Iab / IVa Formed ([3]; 37°C, 0 min): 9.0 µM | Iab / IVa Formed ([3]; 15 min): 7.3 µM | Iab / IVa Formed ([3]; 30 min): 6.8 µM | Iab / IVa Formed ([3]; 45 min): 6.5 µM | Iab / IVa Formed ([3]; 60 min): 6.3 µM | Iab / IVa Formed ([3]; 90 min): 6.3 µM | solubility (physchem; aqueous solution, aqueous buffer): > 12000 µg/mL | solubility (physchem; aqueous solution, pH 1.4, simulated gastric fluid): 220 µg/mL | Iab / IVa Formed ([5]; 37°C, 0 min): 9.5 µM | Iab / IVa Formed ([5]; 15 min): 9.2 µM | Iab / IVa Formed ([5]; 30 min): 9.0 µM | Iab / IVa Formed ([5]; 45 min): 9.6 µM | Iab / IVa Formed ([5]; 60 min): 9.1 µM | Iab / IVa Formed ([5]; 90 min): 9.4 µM | Iab / IVa Formed ([6]; 37°C, 0 min): 9.2 µM | Iab / IVa Formed ([6]; 15 min): 9.0 µM | Iab / IVa Formed ([6]; 30 min): 7.8 µM | Iab / IVa Formed ([6]; 45 min): 7.8 µM | Iab / IVa Formed ([6]; 60 min): 7.1 µM | Iab / IVa Formed ([6]; 90 min): 6.7 µM
SMILES: COc1cnc(OC)c2c1c(C(=O)C(=O)N1CCN(C(=O)c3ccccc3)CC1)cn2COP(=O)(O)O [Iab, {3-[(4-benzoylpiperazin-1-yl)(oxo)acetyl]-4,7-dimethoxy-1H-pyrrolo[2,3-c]pyridin-1-yl}methyl dihydrogen phosphate, L-lysine salt (1:1)]

hydrolysis in the presence of hepatocytes (monkey hepatocytes): No turnover was observed | hydrolysis in the presence of hepatocytes (dog hepatocytes): hydrolyzed
SMILES: COc1cnc(-n2cnc(C)n2)c2c1c(C(=O)C(=O)N1CCN(C(=O)c3ccccc3)CC1)cn2COP(=O)(O)O [Icb, [3-[(4-benzoylpiperazin-1-yl)(oxo)acetyl]-4-methoxy-7-(3-methyl-1H-1,2,4-triazol-1-yl)-1H-pyrrolo[2,3-c]pyridin-1-yl]methyl dihydrogen phosphate, 2-amino-2-(hydroxymethyl)propane-1,3-diol salt (1:1)]
